Data reported in the supplement of paper PMC10307832.

Experiments:
Test in all cases: relative viability (nuclei count vs DMSO), 5 days (fraction); higher = more cells survive
TGX 221 + Pemetrexed = compound: CC1=CN2C(=O)C=C(N=C2C(=C1)C(C)NC3=CC=CC=C3)N4CCOCC4 [TGX 221] + Nc1nc2[nH]cc(CCc3ccc(C(=O)N[C@@H](CCC(=O)O)C(=O)O)cc3)c2c(=O)[nH]1 [Pemetrexed] (partner 0.2 µM)
Method in brief: (§1)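 Lung cancer cell lines in 1536-well plates got either a single drug or a fixed anchor-drug dose together with five library-drug doses (not always all listed) in √10 steps, by pin tool, on the day after seeding. Nuclei were counted after 5 days, and relative viability is the treated-to-vehicle ratio of nuclei counts. Values are medians of duplicate plates.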

[1] = compound: O=C(CCCCCCNC(=O)c1cnc(N(c2ccccc2)c2ccccc2)nc1)NO [Ricolinostat] + Cc1cc(Nc2cc(N3CCN(C)CC3)nc(Sc3ccc(NC(=O)C4CC4)cc3)n2)n[nH]1 [Tozasertib] (partner 0.1 µM)
Method in brief: as §1

[2] = compound: O=C(CCCCCCNC(=O)c1cnc(N(c2ccccc2)c2ccccc2)nc1)NO [Ricolinostat] + Nc1ncn([C@H]2C[C@H](O)[C@@H](CO)O2)c(=O)n1 [Decitabine] (partner 2 µM)
Method in brief: as §1

[3] = compound: C1=CC=C(C(=C1)C2=CC=C(C=C2)C3=CSC4=C3C(=C(C(=O)N4)C#N)O)O + COc1cc2c(Oc3ccc(NC(=O)C4(C(=O)Nc5ccc(F)cc5)CC4)cc3F)ccnc2cc1OCCCN1CCOCC1 [Foretinib] (partner 0.25 µM)
Method in brief: as §1

Cell Line | relative viability (TGX 221 + Pemetrexed; first compound 0.08 µM) | relative viability (TGX 221 + Pemetrexed; first compound 0.253 µM) | relative viability (TGX 221 + Pemetrexed; first compound 0.8 µM) | relative viability (TGX 221 + Pemetrexed; first compound 2.53 µM) | relative viability (TGX 221 + Pemetrexed; first compound 8 µM) | relative viability ([1]; first compound 0.08 µM) | relative viability ([1]; first compound 0.253 µM) | relative viability ([1]; first compound 0.8 µM) | relative viability ([1]; first compound 2.53 µM) | relative viability ([2]; first compound 0.08 µM) | relative viability ([2]; first compound 0.253 µM) | relative viability ([2]; first compound 0.8 µM) | relative viability ([2]; first compound 2.53 µM) | relative viability ([3]; first compound 0.08 µM) | relative viability ([3]; first compound 0.253 µM) | relative viability ([3]; first compound 0.8 µM) | relative viability ([3]; first compound 2.53 µM) | relative viability ([3]; first compound 8 µM)
LXF-289 | 0.926 | 0.918 | 0.897 | 0.937 | 0.961 | 0.192 | 0.201 | 0.22 | 0.19 | 0.407 | 0.366 | 0.384 | 0.347 | 0.999 | 0.959 | 0.993 | 1.05 | 1.04
NCI-H23 | 0.599 | 0.571 | 0.678 | 0.526 | 0.578 | 0.399 | 0.321 | 0.393 | 0.254 | 0.325 | 0.316 | 0.319 | 0.323 | 0.906 | 1.04 | 1.19 | 1.05 | 0.896
NCI-H322M | 0.58 | 0.619 | 0.604 | 0.579 | 0.565 | – | 0.504 | 0.517 | 0.497 | 0.616 | 0.708 | 0.721 | 0.754 | 1.01 | 1.02 | 0.935 | 1.02 | 0.954
NCI-H358 | 0.189 | 0.167 | 0.168 | 0.166 | 0.174 | 0.0975 | 0.0893 | 0.107 | 0.0955 | 0.247 | 0.212 | 0.214 | 0.179 | 0.672 | 0.558 | 0.697 | 0.624 | 0.53
NCI-H441 | 0.238 | 0.224 | 0.231 | 0.28 | 0.266 | – | 0.69 | 0.561 | 0.474 | 0.28 | 0.227 | 0.202 | 0.214 | 1.07 | 1.15 | 1 | 1.27 | 0.976
NCI-H460 | 0.0673 | 0.0618 | 0.0662 | 0.0757 | 0.0781 | 0.549 | 0.46 | 0.558 | 0.186 | 0.496 | 0.429 | 0.519 | 0.427 | 1.18 | 1.11 | 0.972 | 1 | 0.569
NCI-H520 | 0.592 | 0.459 | 0.476 | 0.457 | 0.358 | – | 0.374 | 0.345 | 0.345 | – | 0.521 | 0.513 | 0.426 | 0.515 | 0.711 | 0.835 | 0.848 | 0.627
NCI-H596 | 0.441 | 0.419 | 0.473 | 0.452 | 0.479 | 0.977 | 1.08 | 0.983 | 0.859 | 0.992 | 0.981 | 0.99 | 1.67 | 1.01 | 0.783 | 0.79 | 1.03 | 0.824
NCI-H647 | 0.15 | 0.162 | 0.18 | 0.163 | 0.146 | 0.315 | 0.195 | 0.27 | 0.206 | 0.365 | 0.317 | 0.31 | 0.312 | 1.21 | 1.22 | 1.32 | 1.41 | 0.963
NCI-H650 | 0.87 | 0.894 | 0.919 | 0.882 | 0.926 | 0.671 | 0.675 | 0.673 | 0.467 | 0.312 | 0.301 | 0.315 | 0.306 | 1.11 | 1.07 | 0.952 | 1.04 | 1.05
NCI-H661 | 0.878 | 0.919 | 0.955 | 0.955 | 0.853 | 0.354 | 0.364 | 0.288 | 0.281 | 0.552 | 0.511 | 0.581 | 0.489 | 1.3 | 1.06 | 0.898 | 1.02 | 0.99
NCI-H838 | 0.255 | 0.232 | 0.235 | 0.232 | 0.231 | 0.255 | 0.275 | 0.238 | 0.212 | 0.44 | 0.471 | 0.489 | 0.539 | 1.06 | 0.981 | 1.05 | 0.954 | 0.91
NCI-H1355 | 1.03 | 1.02 | 1.05 | 0.998 | 0.893 | 0.6 | 0.558 | 0.483 | 0.477 | 0.332 | 0.331 | 0.36 | 0.328 | 0.895 | 1.01 | 1.12 | 0.951 | 0.703
NCI-H1395 | 0.73 | 0.766 | 0.709 | 0.604 | 0.724 | – | 0.835 | 0.741 | 0.671 | – | 0.731 | 0.652 | 0.663 | 0.867 | 0.964 | 0.991 | 1.01 | 1
NCI-H1437 | 0.347 | 0.294 | 0.357 | 0.329 | 0.259 | 0.341 | 0.4 | 0.367 | 0.315 | 0.448 | 0.545 | 0.543 | 0.467 | 1.24 | 1.32 | 1.36 | 1.37 | 1.1
NCI-H1650 | 0.394 | 0.408 | 0.324 | 0.336 | 0.28 | 0.428 | 0.431 | 0.265 | 0.256 | 0.489 | 0.346 | 0.358 | 0.311 | 0.795 | 1.52 | 1.31 | 1.22 | 0.935
